Measured values as given in paper PMC9077470 (RSC Advances, 2018).
Converted amounts (≈) assume the structure as drawn.

Key:
[1] = Partition coefficients in n-octanol/phosphate buffer (pH 7.4); type: physicochemical; settings: means ± SD, n = 3
Experimental: The phosphate buffer and octanol were mutually saturated at 20–22 °C before use. Samples were dissolved in the aqueous phase and the n-octanol/phosphate buffer mixtures were shaken for 24 h to reach a distribution equilibrium. The volumes of each phase were chosen so that the solute concentration in the aqueous phase, before and after distribution, could readily be measured using HPLC method. The partition coefficients (P) were calculated from the following equation: [drawing 1] where Ci and Cw represent the solute concentrations in the aqueous buffer phase before and after distribution, respectively, Vw represents the volume of the aqueous phase, and Vo is the volume of the octanol phase.[16]

[2] = Aqueous solubility (equilibrium, distilled water); type: physicochemical; settings: 25 °C, thermodynamic from solid, 25 ± 2 °C, means ± SD, n = 3, read-out: S (aqueous solubility)
Experimental: The mixtures were placed in an ultrasonic water bath for 10 min and then shaken for 24 h to establish a saturation equilibrium. Upon filtration, the filtrate was diluted with an appropriate amount of water and the mixture was analyzed by HPLC, the concentration of each compound in its saturated solution was calculated.

[3] = In vitro incubation with stomach contents of rats; type: in vitro ADME; settings: rat stomach contents homogenate, pH 1.2, 37 °C, after 2 h of incubation
Experimental: (§1) After anesthetized with diethyl ether, rats were sacrificed and their contents of stomach and small intestine were collected and homogenized respectively, the homogenate was diluted with buffer solution (pH 1.2 for stomach contents, pH 6.8 for small intestine contents) to 20% (w/v). […] After 0.25, 0.5, 1.0, 1.5, 2.0, 3.0 and 4.0 h of incubation, 200 μL of samples were collected and replaced with the same volume of blank homogenate, then samples were centrifuged at 13 000 rpm for 5 min, filtered with membrane filter, and analyzed by HPLC. The residual contents of each prodrug in homogenate were calculated and the hydrolysis curves were drawn.

[4] = In vitro incubation with small intestine contents of rats; type: in vitro ADME; settings: rat small intestine contents homogenate, pH 6.8, 37 °C, after 4 h of incubation
Experimental: as §1

[5] = In vivo incubation in the colon of rats; settings: injected into tied rat colon, 6 h
Experimental: 6 hours later, rats were sacrificed and their colon contents were separated and homogenized in 40 mL of phosphate buffer (pH 7.4). The homogenate was sonicated for 5 min and centrifuged at 13 000 rpm for 5 min, then 0.2 mL of the supernatant was collected and mixed with 0.8 mL of methanol. Finally, samples were centrifuged, filtered and analyzed by HPLC. The residual contents of each prodrug in colon contents were calculated, and the hydrolysis ratio was calculated by the following equation: [drawing 2] where Wr is the residual amount of prodrugs in the colon contents and Wi is the initial amount of prodrugs that administered to rats.

[6] = tested on: TNBS-induced experimental colitis; assay: TNBS-induced colitis: body weight, survival rates, overall effect; type: in vivo, mice; settings: TNBS colitis mice; Ols-DB as enema, others i.g.
Experimental: Colitis was induced according to the previous study.[18,19] Briefly, after 12 h of fasting, mice were anesthetized with intraperitoneal pentobarbital sodium (35 mg kg^-1) before the induction of colitis. 0.1 mL of 50% (v/v) ethanol contained 2.5% (v/v) TNBS was instilled into the colon 3.5-4 cm from the anus by a gavage needle. The mice were kept in a head-down position for 30 s to prevent leakage of the intracolonic instillation. Mice in the control group received normal saline instead of TNBS solution, a physical mixture of 5-ASA and sodium butyrate was used as the positive control. […] The treatments were given once daily for 5 continuous days starting 24 hours after the induction of colitis. After the induction of colitis, the body weight of each mice was recorded daily, and the curves of weight changes for each group were drawn to evaluate the TNBS-induced colitis. Meanwhile, the death of mice in each group was recorded daily and the final survival rates of mice were calculated.

[7] = tested on: TNBS-induced experimental colitis; assay: TNBS-induced colitis: disease activity index (DAI); type: in vivo, mice; settings: vs positive control (5-ASA + sodium butyrate)
Experimental: Colitis was induced according to the previous study.[18,19] Briefly, after 12 h of fasting, mice were anesthetized with intraperitoneal pentobarbital sodium (35 mg kg^-1) before the induction of colitis. 0.1 mL of 50% (v/v) ethanol contained 2.5% (v/v) TNBS was instilled into the colon 3.5-4 cm from the anus by a gavage needle. The mice were kept in a head-down position for 30 s to prevent leakage of the intracolonic instillation. Mice in the control group received normal saline instead of TNBS solution, a physical mixture of 5-ASA and sodium butyrate was used as the positive control. […] The treatments were given once daily for 5 continuous days starting 24 hours after the induction of colitis. DAI is ranged from 0 to 4 and it is the sum of scores given for body weight loss, stool consistency and presence or absence of fecal blood. The fecal occult blood of mice was evaluated by the ο-tolidine method.[22] A small amount of feces samples were smeared on a white plate. 2-3 drops of ο-tolidine solution (10 g L^-1, dissolved in acetic acid) were added into samples and mixed evenly. Then 2-3 drops of 3% H2O2 solution were added into the mixture, meanwhile, start the time and observe immediately. Scored as: normal, weak positive, green to light green developing over 2 min; +, positive, greenish-blue to deep green developing within 1 min; ++, positive, blue to bluish-green developing within 5-20 s; +++, very strong positive, intense blue color developing immediately.[23]

[8] = tested on: MPO activity in colonic tissues; assay: TNBS-induced colitis: MPO activity in colonic tissues; type: in vivo, mice
Experimental: Colitis was induced according to the previous study.[18,19] Briefly, after 12 h of fasting, mice were anesthetized with intraperitoneal pentobarbital sodium (35 mg kg^-1) before the induction of colitis. 0.1 mL of 50% (v/v) ethanol contained 2.5% (v/v) TNBS was instilled into the colon 3.5-4 cm from the anus by a gavage needle. The mice were kept in a head-down position for 30 s to prevent leakage of the intracolonic instillation. Mice in the control group received normal saline instead of TNBS solution, a physical mixture of 5-ASA and sodium butyrate was used as the positive control. […] The treatments were given once daily for 5 continuous days starting 24 hours after the induction of colitis. […] Samples were freeze-thawed three times, after which sonication was repeated. Homogenates were then centrifuged at 13 000 rpm for 30 min and MPO was extracted from the resulting supernatant.[25] MPO activity was measured by the assay kit according to its provider's instructions.

[9] = tested on: SOD, MDA, GSH, GSH-Px in colonic tissues; assay: TNBS-induced colitis: levels of SOD, MDA, GSH and GSH-Px in colonic tissues; type: in vivo, mice; settings: vs TNBS group, p < 0.01
Experimental: Colitis was induced according to the previous study.[18,19] Briefly, after 12 h of fasting, mice were anesthetized with intraperitoneal pentobarbital sodium (35 mg kg^-1) before the induction of colitis. 0.1 mL of 50% (v/v) ethanol contained 2.5% (v/v) TNBS was instilled into the colon 3.5-4 cm from the anus by a gavage needle. The mice were kept in a head-down position for 30 s to prevent leakage of the intracolonic instillation. Mice in the control group received normal saline instead of TNBS solution, a physical mixture of 5-ASA and sodium butyrate was used as the positive control. […] The treatments were given once daily for 5 continuous days starting 24 hours after the induction of colitis. Colon tissue samples were homogenized with normal saline, the homogenate (10%, w/w) was centrifuged at 13 000 rpm for 15 min, and the resulting supernatant was diluted to 1% (w/w) for further assay. The protein levels of the colon homogenate were detected by a BCA protein assay kit. Then the activities of SOD and GSH-Px, and the levels of MDA and GSH of samples in each group were measured by the assay kits according to the provider's instructions.

[10] = no reference given; cited from earlier work

SMILES	P (partition coefficient) [1]	logP at 24 h [1]	solubility at 24 h [2] [mg/mL]	residual content of prodrug in stomach contents [3]	residual content of prodrug in small intestine contents [4] [%]	hydrolysis ratio after in vivo incubation in rat colons [5] [%]	therapeutic effects on the TNBS-induced UC (overall) [6]	DAI, compared with positive control [7]	MPO activity in colonic tissues ([8]; vs TNBS group, p < 0.01)	MPO activity, compared with positive control ([8]; vs positive control)	GSH-Px activities in the colon [9]	MDA levels in the colon [9]	SOD activities in the colon [9]	half-time (t1/2) [10] [min]
Nc1ccc(O)c(C(=O)O)c1 [5-ASA, 5-aminosalicylic acid, reference compound]	4.47 ± 0.21	0.65 ± 0.02	–	–	–	–	–	–	–	–	–	–	–	–
CCCC(=O)Oc1ccc(N)cc1C(=O)O [5-ASB, 5-aminosalicylic acid butyrate]	1.45 ± 0.10	0.16 ± 0.03	310 ± 50 (≈ 1390 mM)	hardly hydrolyzed	100	6.79	certain therapeutic effects	better effects than the positive control	significantly decreased	significantly better than the positive control	increased	significantly decreased	increased	–
CCCC(=O)O [Butyrate]	–	–	–	–	–	–	–	–	–	–	–	–	–	6
